Test results taken from ChEMBL document CHEMBL1681651, “A broad spectrum anticancer nucleoside with selective toxicity against human colon cells in vitro” (2011).

How the values were obtained:
Assay type in all cases: functional
[1] = Growth inhibition of human […] cells assessed as cell growth at 100 uM after 48 hrs by SRB assay; settings: read-out: Activity
UACC-62 [2] = test: Growth inhibition of human UACC62 cells assessed as cell growth at 10 uM after 48 hrs by SRB assay; settings: UACC-62, 48 h, read-out: Activity
SF-539 [3] = test: Growth inhibition of human SF539 cells assessed as cell growth at 10 uM after 48 hrs by SRB assay; settings: SF-539, 48 h, read-out: Activity
IGROV-1 [4] = test: Growth inhibition of human IGROV1 cells assessed as cell growth at 100 uM after 48 hrs by SRB assay; settings: IGROV-1, 48 h, read-out: Activity
OVCAR-3 = test: Growth inhibition of human OVCAR3 cells after 48 hrs by […] growth inhibition assay; settings: OVCAR-3, 48 h
A549 [5] = test: Growth inhibition of human A549 cells assessed as cell growth at 0.1 uM after 48 hrs by SRB assay; settings: A549, 48 h, read-out: Activity
SF-539 [6] = test: Growth inhibition of human SF539 cells assessed as cell growth at 0.1 uM after 48 hrs by SRB assay; settings: SF-539, 48 h, read-out: Activity
OVCAR-5 [7] = test: Growth inhibition of human OVCAR5 cells assessed as cell growth at 10 uM after 48 hrs by SRB assay; settings: OVCAR-5, 48 h, read-out: Activity
MCF7 = test: Growth inhibition of human MCF7 cells assessed as cell growth at 1 uM after 48 hrs by SRB assay; settings: MCF7, 48 h, read-out: Activity
SF-268 = test: Growth inhibition of human SF268 cells assessed as cell growth at 10 uM after 48 hrs by SRB assay; settings: SF-268, 48 h, read-out: Activity
HCC 2998 [8] = test: Growth inhibition of human HCC2998 cells assessed as cell growth at 1 mM after 48 hrs by SRB assay; settings: HCC 2998, 48 h, read-out: Activity
[9] = Growth inhibition of human […] cells assessed as cell growth at 1 uM after 48 hrs by SRB assay; settings: read-out: Activity
TK-10 [10] = test: Growth inhibition of human TK10 cells assessed as cell growth at 0.1 uM after 48 hrs by SRB assay; settings: TK-10, 48 h, read-out: Activity
OVCAR-5 [11] = test: Growth inhibition of human OVCAR5 cells assessed as cell growth at 1 uM after 48 hrs by SRB assay; settings: OVCAR-5, 48 h, read-out: Activity
TK-10 [12] = test: Growth inhibition of human TK10 cells assessed as cell growth at 10 uM after 48 hrs by SRB assay; settings: TK-10, 48 h, read-out: Activity
ACHN = test: Growth inhibition of human ACHN cells after 48 hrs by […] growth inhibition assay
HCT-116 = test: Growth inhibition of human HCT116 cells after 48 hrs by […] growth inhibition assay; settings: HCT-116, 48 h
HOP-62 [13] = test: Growth inhibition of human HOP62 cells after 48 hrs by […] growth inhibition assay; settings: HOP-62, 48 h
UACC-62 [14] = test: Growth inhibition of human UACC62 cells assessed as cell growth at 0.1 uM after 48 hrs by SRB assay; settings: UACC-62, 48 h, read-out: Activity
[15] = Growth inhibition of human Hs 578T cells assessed as cell growth at 10 uM after 48 hrs by SRB assay; settings: read-out: Activity
NCI-H460 [16] = test: Growth inhibition of human NCI-H460 cells after 48 hrs by […] growth inhibition assay; settings: NCI-H460, 48 h
NCI-H460 [17] = test: Growth inhibition of human NCI-H460 cells assessed as cell growth at 10 uM after 48 hrs by SRB assay; settings: NCI-H460, 48 h, read-out: Activity
UACC-257 = test: Growth inhibition of human UACC257 cells assessed as cell growth at 100 uM after 48 hrs by SRB assay; settings: UACC-257, 48 h, read-out: Activity
SN12C [18] = test: Growth inhibition of human SN12C cells assessed as cell growth at 1 mM after 48 hrs by SRB assay; settings: read-out: Activity
IGROV-1 [19] = test: Growth inhibition of human IGROV1 cells assessed as cell growth at 1 mM after 48 hrs by SRB assay; settings: IGROV-1, 48 h, read-out: Activity
A549 [20] = test: Growth inhibition of human A549 cells assessed as cell growth at 10 uM after 48 hrs by SRB assay; settings: A549, 48 h, read-out: Activity
Malme-3M = test: Growth inhibition of human MALME-3M cells assessed as cell growth at 10 uM after 48 hrs by SRB assay; settings: read-out: Activity
SN12C [21] = test: Growth inhibition of human SN12C cells assessed as cell growth at 10 uM after 48 hrs by SRB assay; settings: read-out: Activity
SN12C [22] = test: Growth inhibition of human SN12C cells assessed as cell growth at 1 uM after 48 hrs by SRB assay; settings: read-out: Activity
MDA-MB-231 = test: Growth inhibition of human MDA-MB-231 cells after 48 hrs by […] growth inhibition assay; settings: MDA-MB-231, 48 h
HCC 2998 [23] = test: Growth inhibition of human HCC2998 cells assessed as cell growth at 1 uM after 48 hrs by SRB assay; settings: HCC 2998, 48 h, read-out: Activity
COLO 205 = test: Growth inhibition of human COLO205 cells assessed as cell growth at 1 mM after 48 hrs by SRB assay; settings: COLO 205, 48 h, read-out: Activity
T47D = test: Growth inhibition of human T47D cells assessed as cell growth at 10 uM after 48 hrs by SRB assay; settings: read-out: Activity
HOP-92 = test: Growth inhibition of human HOP92 cells assessed as cell growth at 1 uM after 48 hrs by SRB assay; settings: HOP-92, 48 h, read-out: Activity
HOP-62 [24] = test: Growth inhibition of human HOP62 cells assessed as cell growth at 1 mM after 48 hrs by SRB assay; settings: HOP-62, 48 h, read-out: Activity
[25] = read-out: LC50 (the source's name)
[26] = read-out: pLC50 (the source's name) (converted)

## CNC(=O)NC[C@H]1O[C@@H](n2cnc3c(NC(=O)Nc4ccccc4)ncnc32)[C@H](O[Si](C)(C)C(C)(C)C)[C@@H]1CC(=O)N(C)OC
[1]
  growth at 100 µM: -25%
UACC-62 [2]
  growth at 10 µM: 96%
SF-539 [3]
  growth at 10 µM: 89%
IGROV-1 [4]
  growth at 100 µM: 26%
OVCAR-3; read-out: GI50
  GI50: 7.11 µM
OVCAR-3; [25]
  CC50: > 100 µM
OVCAR-3; read-out: TGI
  TGI: > 100 µM
OVCAR-3; read-out: pGI50 (converted)
  GI50: 7.08 µM
OVCAR-3; [26]
  CC50: > 100 µM
OVCAR-3; read-out: pTGI (converted)
  TGI: > 100 µM
A549 [5]
  growth at 0.1 µM: 97%
SF-539 [6]
  growth at 0.1 µM: 96%
OVCAR-5 [7]
  growth at 10 µM: 92%
MCF7
  growth at 1 µM: 95%
SF-268
  growth at 10 µM: 91%
HCC 2998 [8]
  growth at 1000 µM: 33%
[9]
  growth at 1 µM: 91%
TK-10 [10]
  growth at 0.1 µM: 99%
OVCAR-5 [11]
  growth at 1 µM: 98%
TK-10 [12]
  growth at 10 µM: 104%
ACHN; read-out: GI50
  GI50: 14.4 µM
ACHN; [25]
  CC50: > 100 µM
ACHN; read-out: TGI
  TGI: > 100 µM
ACHN; read-out: pGI50 (converted)
  GI50: 14.5 µM
ACHN; [26]
  CC50: > 100 µM
ACHN; read-out: pTGI
  TGI: > 100 µM
HCT-116; read-out: GI50
  GI50: 4.2 µM
HCT-116; [25]
  CC50: > 100 µM
HCT-116; read-out: TGI
  TGI: > 100 µM
HCT-116; read-out: pGI50 (converted)
  GI50: 4.17 µM
HCT-116; [26]
  CC50: > 100 µM
HCT-116; read-out: pTGI (converted)
  TGI: > 100 µM
HOP-62 [13]; read-out: GI50
  GI50: 24.9 µM
HOP-62 [13]; [25]
  CC50: > 100 µM
HOP-62 [13]; read-out: TGI
  TGI: > 100 µM
HOP-62 [13]; read-out: pGI50 (converted)
  GI50: 25.1 µM
HOP-62 [13]; [26]
  CC50: > 100 µM
HOP-62 [13]; read-out: pTGI (converted)
  TGI: > 100 µM
UACC-62 [14]
  growth at 0.1 µM: 102%
[15]
  growth at 10 µM: 82%
NCI-H460 [16]; read-out: GI50
  GI50: 7.49 µM
NCI-H460 [16]; [25]
  CC50: > 100 µM
NCI-H460 [16]; read-out: TGI
  TGI: > 100 µM
NCI-H460 [16]; read-out: pGI50 (converted)
  GI50: 7.41 µM
NCI-H460 [16]; [26]
  CC50: > 100 µM
NCI-H460 [16]; read-out: pTGI (converted)
  TGI: > 100 µM
NCI-H460 [17]
  growth at 10 µM: 90%
UACC-257
  growth at 100 µM: 65%
SN12C [18]
  growth at 1000 µM: 49%
IGROV-1 [19]
  growth at 1000 µM: -6%
A549 [20]
  growth at 10 µM: 97%
Malme-3M
  growth at 10 µM: 93%
SN12C [21]
  growth at 10 µM: 96%
SN12C [22]
  growth at 1 µM: 104%
MDA-MB-231; read-out: GI50
  GI50: 12.3 µM
MDA-MB-231; [25]
  CC50: > 100 µM
MDA-MB-231; read-out: TGI
  TGI: > 100 µM
MDA-MB-231; read-out: pGI50 (converted)
  GI50: 12.3 µM
MDA-MB-231; [26]
  CC50: > 100 µM
MDA-MB-231; read-out: pTGI (converted)
  TGI: > 100 µM
HCC 2998 [23]
  growth at 1 µM: 97%
COLO 205
  growth at 1000 µM: 1%
T47D
  growth at 10 µM: 84%
HOP-92
  growth at 1 µM: 93%
HOP-62 [24]
  growth at 1000 µM: 28%
